Assay results as given in US9789202B2, “Method for treating cancer using an interferon alpha conjugate” (HANMI SCIENCE CO., LTD., priority 2011, dated 2017).

Assays:
[1] = tested on: human pancreatic cancer cells (Panc-1); assay: In vivo anti-cancer effect in nude mice subcutaneously transplanted with human pancreatic cancer cells (Panc-1); parameters: species or system Athymic BALB/c nude mice; conditions: Panc-1 xenograft, measured for 4 weeks; gemcitabine 40 mg/kg Q3D x 3 weeks i.v.; conjugate or PEG interferon alpha 30 mcg/kg QW x 3 weeks s.c.; combination at the same doses
Method: 5-week old Athymic BALB/c nude mice were subcutaneously injected with 1×10^8/4 mL of Panc-1 cells cultured in vitro, and then cultured. Thereafter, the mice were subcutaneously transplanted with solid cancer having a size of 30 mm^2. Then, the mice were divided into 5 groups (G1, G2, G3, G4, G5) of six mice each according to the size of cancer subcutaneously transplanted.
Single administrations of a control group (Vehicle), gemcitabine (40 mg/kg, Q3D, 3 weeks, intravenous injection), PEG-modified interferon alpha (30 mcg/kg, QW×3 weeks, subcutaneous injection), and interferon alpha conjugate of the present invention (30 mcg/kg, QW, 3 weeks, subcutaneous injection), and co-administration of gemcitabine (40 mg/kg, Q3D, 3 weeks, intravenous injection) and interferon alpha conjugate of the present invention (30 mcg/kg, QW, 3 weeks, subcutaneous injection) to the groups were performed. After administration of the experimental substances for 3 weeks, changes in the tumor size of each group were measured for 4 weeks, and tumor inhibition rate relative to the control group was determined (Table 4).

[2] = tested on: human pancreatic cancer cells (Miapaca-2); assay: In vivo anti-cancer effect in nude mice subcutaneously transplanted with human pancreatic cancer cells (Miapaca-2); parameters: species or system Athymic BALB/c nude mice; conditions: Miapaca-2 xenograft, measured for 4 weeks; gemcitabine 40 mg/kg Q3D x 4 weeks i.v.; conjugate or PEG interferon alpha 30 mcg/kg QW x 4 weeks s.c.; combinations at the same doses
Method: 5-week old Athymic BALB/c nude mice were subcutaneously injected with 1×10^8/4 mL of Miapaca-2 cells cultured in vitro, and then cultured. Thereafter, the mice were subcutaneously transplanted with solid cancer having a size of 30 mm^2. Then, the mice were divided into 5 groups (G1, G2, G3, G4, G5) of seven mice each according to the size of cancer subcutaneously transplanted.
Single administrations of a control group (Vehicle), gemcitabine (40 mg/kg, Q3D, 3 weeks, intravenous injection), PEG-modified interferon alpha (30 mcg/kg, QW×4 weeks, subcutaneous injection), and interferon alpha conjugate of the present invention (30 mcg/kg, QW, 4 weeks, subcutaneous injection), and co-administration of gemcitabine (40 mg/kg, Q3D, 4 weeks, intravenous injection) and interferon alpha conjugate of the present invention (30 mcg/kg, QW, 4 weeks, subcutaneous injection) to the groups were performed. After administration of the experimental substances for 3 weeks, changes in the tumor size of each group were measured for 4 weeks, and tumor inhibition rate relative to the control group was determined (Table 5).

[3] = tested on: human pancreatic cancer cells (BxPC3); assay: In vivo anti-cancer effect in nude mice subcutaneously transplanted with human pancreatic cancer cells (BxPC3); parameters: species or system Athymic BALB/c nude mice; conditions: BxPC3 xenograft, 4 weeks; gemcitabine 30 mg/kg Q3D x 4 weeks i.v.; conjugate or PEG interferon alpha 30 mcg/kg QW x 4 weeks s.c.; combination at the same doses
Method: In order to measure the in vivo anti-cancer effect of the interferon alpha conjugate prepared in Example 1, changes in the tumor size were examined in the mice subcutaneously transplanted with human pancreatic cancer cells (BxPC3). 5-week old Athymic BALB/c nude mice were subcutaneously injected with 1×10^8/4 mL of BxPC3 cells cultured in vitro, and then cultured. […] After administration of the experimental substances, changes in the tumor size of each group were measured for 4 weeks, and tumor inhibition rate relative to the control group was determined (Table 3).

[4] = tested on: pancreatic cancer; conditions: cited from earlier work
[5] = tested on: Daudi cells; assay: In vitro test on anti-proliferative efficacy in Daudi cells (CCK-8); format: cell-based, human; conditions: inhibition of Daudi cell proliferation, incubation 72 hours, CCK-8 absorbance at 450 nm
Method: Daudi cells were used, and RPMI1640 supplemented with 10% FBS and 10% PS was used as a culture medium and an experimental medium. Interferon alpha and interferon alpha conjugate of the present invention were diluted 4-fold with the experimental medium for 10 concentrations in 96-well round bottom plates. Each 50 μL of the diluted experimental medium was transferred to 96-well flat bottom plates. Daudi cells were centrifuged at 1000 rpm for 5 minutes, and then washed with 50 mL of PBS in a cornical tube. The cells were centrifuged at 1000 rpm for 5 minutes, and the experimental medium was added thereto, followed by counting the number of cells. Daudi cells were diluted to a concentration of 5×10^5 cell/mL, and then 100 μL was added to each well, followed by incubation at 37° C. for 72 hours. Then, 20 μL of CCK-8 was added to each well, and after 3 hours, absorbance was measured at 450 nm.
In vitro inhibitory effects of interferon alpha and interferon alpha conjugate of the present invention (long-acting interferon alpha conjugate) on cancer cell proliferation were examined by EC50 (Table 1, FIG. 1).

[6] = tested on: human ovarian cancer cells (SK-OV-3); assay: In vivo anti-cancer effect in nude mice subcutaneously transplanted with human ovarian cancer cells (SK-OV-3); parameters: species or system Athymic BALB/c nude mice; conditions: SK-OV-3 xenograft, 4 weeks, subcutaneous injection; interferon alpha 30 mcg/kg (Q1D*5)*4 weeks; PEG interferon alpha and conjugate 150 mcg/kg QW x 4 weeks
Method: In order to measure the in vivo anti-cancer effect of the interferon alpha conjugate prepared in Example 1, changes in the tumor size were examined in the mice subcutaneously transplanted with human ovarian cancer cells (SK-OV-3).
5-week old Athymic BALB/c nude mice were subcutaneously injected with 1×10^8/4 mL of SK-OV-3 cells cultured in vitro, and then cultured. Thereafter, the mice were subcutaneously transplanted with solid cancer having a size of 30 mm^2. Then, the mice were divided into 4 groups (G1, G2, G3, G4) of five mice each according to the size of cancer subcutaneously transplanted.
Single administrations of a control group (Vehicle), interferon alpha (30 mcg/kg, Q1D×5 times×4 weeks, subcutaneous injection), PEG-modified interferon alpha (150 mcg/kg, QW×4 weeks, subcutaneous injection), and interferon alpha conjugate of the present invention (150 mcg/kg, QW×4 weeks, subcutaneous injection) to the groups were performed. After administration of the experimental substances, changes in the tumor size of each group were measured for 4 weeks, and tumor inhibition rate relative to the control group was determined (Table 2).

| EC50 [5] [ng/mL] | Compound | Tumor inhibition rate (%, relative to vehicle) [1] [%] | Tumor inhibition rate (%, relative to vehicle) [2] [%] | Tumor inhibition rate (%, relative to vehicle) [3] [%] | median overall survival ([4]; advanced pancreatic cancer, single administration) [months] | 1-year survival rate of pancreatic cancer patients ([4]; metastatic pancreatic cancer) [%] | Tumor inhibition rate (%, relative to vehicle) [6] [%] |
| --- | --- | --- | --- | --- | --- | --- | --- |
|  | Nc1ccn([C@@H]2O[C@H](CO)[C@@H](O)C2(F)F)c(=O)n1 [Gemcitabine, 2′-deoxy-2′,2′-difluoro cytidine] | 60 | 17 | 20 | 5.7 | 18 |  |
| 0.0217 | Interferon alpha: interferon alpha prepared according to Korean Patent No. 10-0360594; human interferon alpha-2b |  |  |  |  |  | 63.84 |
